Results from US20230075822A1, “USE OF CASTALAGIN OR ANALOGS THEREOF FOR ANTI-CANCER EFFICACY AND TO INCREASE THE RESPONSE TO IMMUNE CHECKPOINT INHIBITORS” (THE ROYAL INSTITUTION FOR THE ADVANCEMENT OF …, priority 2020, published 2023).

Tested on: MCA-205 sarcoma
Assay: Subcutaneous MCA-205 sarcoma tumor model (anti-PD-1 sensitive), SPF-reared mice
Format: in vivo, C57BL/6 mice
Details: 0.85 mg/kg per mouse daily oral gavage; in contrast to castalagin
Protocol: FIG. 1A is a schematic of the protocol used to study the effect of a Camu camu extract (CC) alone and additive effect when combined to anti-PD-1 therapy in a murine tumor model sensitive to anti-PD-1 therapy. Syngeneic C57BL/6 mice were implanted with 0.8×10^6 MCA-205 sarcoma, subcutaneously and treated intraperitoneally (i.p.) when tumors reached 20 to 35 mm^2 in size with anti-PD-1 mAb (250 μg/mouse; clone RMP1-14,) or isotype control (clone 2A3) with or without daily oral gavage with 200 mg/kg of [NT] Powder from SunFood). Murine studies. All animal studies were approved by the Institutional Animal Care Committee (CIPA) and carried out in compliance with the Canadian Council on Animal Care guidelines. Murine experiments were conducted using seven-week-old female C57BL/6 mice, obtained from Charles River, Canada. Germ-free female C57BL/6 mice were purchased from the International Microbiome Centre Germ-Free Facility (University of Calgary, Canada) and maintained at the CR-CHUM Germ-Free Facility. Cell culture, reagents and tumor cell lines. MCA-205 fibrosarcoma cells and E0771 mammary adenocarcinoma cells, class I MHC H-2b syngeneic cell lines for C57BL/6 mice, were used for this study. MCA-205 cells were cultured at 37° C. in the presence of 5% CO2 in Roswell Park Memorial Institute (RPMI) 1640 (Gibco-lnvitrogen) containing 10% Fetal bovine serum (FBS) (Wisent), 2 mM L-glutamine (Wisent), 100 IU/ml penicillin/streptomycin (Wisent), 1 mM sodium pyruvate (Wisent) and MEM non-essential amino acids (Gibco-lnvitrogen). E0771 cells were cultured at 37° C. in the presence of 5% CO2 in Dulbecco's Modified Eagle's Medium (DMEM) (Gibco-lnvitrogen) containing 10% FBS (Wisent), 2 mM L-glutamine, 100 IU/ml penicillin/streptomycin (Wisent), 1 mM sodium pyruvate (Wisent). Subcutaneous model of MCA-205 sarcoma and E0771 breast cancer. Syngeneic C57BL/6 mice were implanted with 0.8×10^6 MCA-205 or 0.5×10^6 E0771 subcutaneously. When tumors reached 20 to 35 mm^2 in size, mice were treated four times (or two times for flow cytometry analysis, see section below) intraperitoneally (i.p.) every three day with anti-PD-1 monoclonal antibody (mAb) (250 μg/mouse; clone RMP1-14, BioXcell) or isotype control (clone 2A3, BioXcell). Upon treatment initiation, mice received a daily oral gavage with the following products: Myrciaria dubia, [NT] raw extract (Sunfood) (200 mg/kg per mouse), fractions from the extraction round 1 (P, INT, NP, Insol) (40.18 mg/kg per mouse), fractions from the extraction round 2 (P1, P2, P3 and P4) (equivalent to fraction P dose of 40.18 mg/kg per mouse), […] (extracted from CC, see isolation process below) (0.85 mg/kg per mouse), ellagic acid (0.85 mg/kg per mouse) (Sigma-Aldrich), urolithin A (0.85 mg/kg per mouse) (Sigma-Aldrich), […] (0.5 mg/kg per mouse) (PhytoProof®, Sigma-Aldrich) and castalagin at different concentration: 1/8, 1/6, 1/4, 1/2 of the standard concentration, at the standard concentration (0.85 mg/kg per mouse), 1.5-fold (1.25 mg/kg per mouse) and three-fold increase concentration (2.55 mg/kg per mouse) (PhytoProof©, Sigma-Aldrich or isolated from food grade oak, see isolation process below). In the control group mice received daily oral gavage with water (100 μL) Tumor area was routinely monitored every three days by means of a caliper. In the depletion experiments, we used the anti-CD8 mAb (150 μg/mouse; clone 53-6.7, BioXcell) or isotype control (clone 2A3, BioXcell.

| SMILES | antitumor effect (tumor size at sacrifice) |
| --- | --- |
| O=c1oc2c(O)c(O)cc3c(=O)oc4c(O)c(O)cc1c4c23 [ellagic acid, reference compound] | no antitumor effects were observed |
| O=c1oc2cc(O)ccc2c2ccc(O)cc12 [urolithin A, reference compound] | no antitumor effects were observed |
| O=C1OC[C@H]2OC(=O)c3cc(O)c(O)c(O)c3-c3c(O)c(O)c(O)c4c3C(=O)O[C@H]([C@H]3OC(=O)c5c-4c(O)c(O)c(O)c5[C@H]3O)[C@@H]2OC(=O)c2cc(O)c(O)c(O)c2-c2c1cc(O)c(O)c2O [vescalagin, reference compound] | no antitumor effects were observed |
